Format in all cases: in vivo
Data set [1] has as its system dust mite-sensitized rabbits. Kind of data set: Lung histology (Example 27). Particulars: compared to saline. As for the experimental part: This follow-up study compared the effects of DHEA-S and Puimicort® (budesonide inhalation suspension) on allergen-induced bronchial hyperresponsiveness (BHR) to histamine and pulmonary inflammation in dust mite-sensitized rabbits. The study included 18 animals divided into 3 treatment groups: saline, DHEA-S, and Puimicort. The animals were treated for once per day for 5 consecutive days via nebulization through a pediatric facemask covering the nose and mouth. Treatments were DHEA-S, 10 mg/day (5 mg/ml), Pulmicort Respules, 0.5 mg/day (0.5 mg/2 ml, note: this is the standard human dose) or saline (2 ml). A dust mite challenge was performed on day 4, and development of airway inflammation was assessed 6 hours and 30 hours after dust mite challenge. Histamine sensitivity was assessed 30 hours after challenge (day 5) and the lungs removed for histology.
Analysis of lung sections indicated a moderate level of pulmonary inflammation in all groups. No differences in the level of monocyte phagocytic hyperplasia, airway and blood vessel cuffing by inflammatory cells, pneumonitis, pneumonia, bronchial associated lymphoidal tissue hyperplasia, septal edema, hemorrhage, alveolar edema, or bronchitis/bronchiolitis was observed, although monocyte phagocytic hyperplasia tended to be higher in the Pulmicort and DHEA-S groups, and bronchitis tended to be lower.

Data set [2] can be described thus: Acute inhalation toxicity in dogs. Particulars: dog, in vivo, inhaled; preclinical toxicology studies; not achieved at this dose; read-out: maximum tolerated dose. As for the experimental part: (§1) Other findings were minor in nature and detailed in the reports that follow. Therefore, nebulization of an aqueous solution was determined to be feasible but not practical due to the inability to achieve a sufficient safety factor to support clinical trials.

For a further data set, the system named is dogs. Kind of data set: Acute inhalation toxicity in dogs. Particulars: inhalation. As for the experimental part: as §1

The values that follow come from patent US20110045032A1 (priority 2001, published 2011).

A value given as a limit tells only on which side of the number the result lay.

Turning to `CC12CCC3C(CC=C4CC(OS(=O)(=O)[O-])CCC43C)C1CCC2=O.[Na+]` (stereo not drawn) [DHEA-S, Dehydroepiandrosterone sulfate], in data set [1] (not significant), the monocyte phagocytic hyperplasia result was “tended to increase” and the necrotizing bronchitis entry is given as “tended to decrease”. In addition, the pavementing entry in data set [1] (statistically significant) is recorded as “decreased pavementing”. Also, the MTD in data set [2] is over 2 mg/kg/day. Moreover, the maximum tolerated dose result in the data set on dogs is “could not be achieved”. Moreover, the “adverse effects to the respiratory tract” value with dogs (up to the maximum feasible dose) is “did not produce any adverse affects”.
